Measured values: PMC8694140, “Synthesis and photobiological applications of naphthalimide–benzothiazole conjugates: cytotoxicity and topoisomerase IIα inhibition” (RSC Advances, 2021)

Legend:
[1] = test system: A549 (lung) human cancer cell line; test: MTT cytotoxicity assay, A549; format: cell-based; settings: Homo sapiens, A549, 48 h
Description: Human malignant cell lines, i.e., MCF7 (breast), HeLa (cervix), and A549 (lung), as well as non-cancerous human cell line Hek293 (kidney), were cultured using the Ham's media or DMEM having 10% FBS, […] streptomycin, 100 U ml^−1 penicillin, and 50 mM glutamine. For seeding of cells, 96 well plates were used, maintaining the density of […] cells per well with the help of DMEM as a media having 10% FBS cells. Then, seeded cells were incubated in an incubator having a 5% CO2 supply at 37 °C. Compounds were added to the wells at 1, 10, and 100 μM concentrations, and cells were incubated for 48 h at 37 °C and then added 10 μl of MTT to each well prepared from 5 mg ml^−1 stock solution using 1 × PBS buffer and were incubated for 4 h at 37 °C in the dark. DMSO (100 μl) was used to dissolve the formazan crystals. To determine the concentration of formazan, the crystal absorbance difference was recorded at 570 nm. The percentage of relative cell toxicity was calculated by using the following eqn (1):1 [drawing 1]

[2] = molecular target: human type IIa topoisomerase (Homo sapiens, UniProt P11388); test: Relaxation assay of human topoisomerase IIa (supercoiled pHOT1 plasmid DNA, agarose gel); format: biochemical; settings: compared with etoposide (Fig. S56)
Description: The concentrations 0.1, 0.5, 1, 1.5, 2, and 3 μM were taken for both compounds (Fig. 3).
The assay of human type IIa topoisomerase mediated relaxation of supercoiled plasmid DNA was performed using reaction buffer (20 μl) (5 mM dithiothreitol, 0.5 M Tris–HCl, pH 8.0, 20 mM ATP, 1.50 M NaCl, 300 μg ml^−1 BSA, and 100 mM MgCl2) having supercoiled pHOT1 plasmid DNA (500 ng) and human type IIa topoisomerase enzyme (4 units). The reaction mixtures were incubated for 30 min at 37 °C, followed by adding 10% sodium dodecyl sulfate (2 μl) to stop the reaction. Added 0.5 mg ml^−1 proteinase K (1 μl) to the reaction mixture and allowed to incubate for 15 min at 37 °C. Then, added loading buffer, i.e., 0.25% bromophenol blue and 50% glycerol (1 μl) to the reaction mixture and run on 1% agarose gel electrophoresis using TAE buffer (1.14 ml acetic acid, and 0.37 g EDTA pH 8.1, and 100 ml of 10× stock solution–4.8 g of Tris base). The gel containing DNA was stained with ethidium bromide, washed, and photographed using UV light.

[3] = molecular target: T1, human serum albumin (HSA) (Homo sapiens, UniProt P02768); test: UV-vis absorption titration of HSA (Benesi–Hildebrand); format: binding; settings: HSA 10 μM; for enhancement in absorbance of HSA at 280 nm: compound up to 7 μM; for Kd: UV-vis, phosphate buffer pH 7.4, 298 K, read-out: binding constant compound–HSA (Benesi–Hildebrand) (converted)
Description: To check the interactions between HSA and compounds, UV-vis absorption spectra of HSA (10 μM) were recorded in the absence and incremental additions of compounds 12 and 13 (7 μM). Noteworthy, enhancement in absorbance of HSA at 280 nm (57% for compound 12 and 51% for compound 13) on increasing concentrations of compounds indicated perturbations in the microenvironment of protein's chromophores as a result of interaction between HSA and compounds along with the development of new band at 348 nm (Fig. 4). Increasing the concentration of compounds also produces an enhancement in absorbance value at 348 nm. The binding constants for the compound–HSA system were calculated by Benesi–Hildebrand eqn (2)[32] as 1.75 × 10^5 M^−1 for compound 12 and 1.88 × 10^5 M^−1 for compound 13 (Fig. S57 ^†). These strong binding affinities are favorable for the adequate transportation of these compounds to their target sites.
To record the absorption spectra of HSA, a fixed amount of HSA (10 μM) was titrated with the increasing concentrations of compounds 12 and 13 (7 μM) in the phosphate buffer of pH 7.4 at 298 K. The phosphate buffer was used as a blank solution for baseline corrections. The absorption spectra were recorded in the range of 200–800 nm. […] To calculate the Kb value, the ratio of intercept to the slope was used as A0/(A − A0) versus 1/[compound] plots.

[4] = molecular target: T1, human serum albumin (HSA); test: Synchronous fluorescence spectroscopy of HSA; format: binding; settings: Δλ = 15 nm, tyrosine residue
Excerpt: Synchronous fluorescence spectroscopy (SFS) is commonly used to evaluate the effect of ligand binding on the microenvironment of protein and its amino acids. It is usually observed that a change in polarity of the chromophore of protein causes deviation in the excitation wavelength of a particular amino acid residue.[48,49] This deviation can provide information about the change in confirmation of HSA on the binding of ligand. The SFS of HSA was noted using a fixed difference in wavelengths (Δλ) of 15 nm and 60 nm of synchronized recording of excitation and emission monochromators, which are characteristics of tyrosine and tryptophan amino acid residues, respectively.[50,51] […] The addition of compounds 12 and 13 produced a slight blue shift of about 4 nm at Δλ = 15 nm, corresponding to a tyrosine residue.
The synchronous fluorescence experiment of HSA was performed at a fixed amount of HSA and increasing concentrations of compounds 12 and 13. The spectra were recorded by taking the difference between the wavelengths of excitation and emission (Δλ = λemi − λexc) at 15 nm and 60 nm.

[5] = molecular target: T1, human serum albumin (HSA); test: Energy transfer (FRET) between HSA and compounds; format: binding; settings: compound acceptor; for E (efficiency of energy transfer) / R0 (critical distance, 50% efficiency of energy transfer): HSA donor
Excerpt: Eqn (8)–(10) are used to calculate the values of overlap integral of an emission spectrum of donor with the absorption spectrum of the acceptor (J), the critical distance (50% efficiency of energy transfer, R0), efficiency of energy transfer (E), and the distance among donor and acceptor (r). […] The calculated distance between donor and acceptor for compounds 12 and 13 was found less than 8 nm, and both compounds follow 0.5R0 < r < 1.5R0.
The energy transfer study was accomplished by recording the HSA emission spectrum at 280 nm excitation wavelength and the absorption spectra of compounds 12 and 13.
The following eqn (8)–(10) were used to determine the donor to acceptor energy transfer (E), the critical distance required for energy transfer by 50% (R0), overlap integral of the emission spectrum of donor with the absorption spectrum of the acceptor (J), and distance among the donor and the acceptor (r):[39,57]8 [drawing 6] In this equation, F0 and F denote the emission intensities of HSA in free form and the presence of compounds 12 and 13, respectively.9 R0^6 = 8.8 × 10^−25k^2η^−4ϕJwhere k^2, η, ϕ denote the orientation factor of dipoles, refracted index for used medium, and fluorescence quantum yield of the donor.10 [drawing 7] In this equation, F(λ) denotes the emission intensity for the free form of the donor at the wavelength λ, whereas ε(λ) denotes the molar absorption coefficient of acceptor at the wavelength λ.

T1 sequence (P02768 25-609): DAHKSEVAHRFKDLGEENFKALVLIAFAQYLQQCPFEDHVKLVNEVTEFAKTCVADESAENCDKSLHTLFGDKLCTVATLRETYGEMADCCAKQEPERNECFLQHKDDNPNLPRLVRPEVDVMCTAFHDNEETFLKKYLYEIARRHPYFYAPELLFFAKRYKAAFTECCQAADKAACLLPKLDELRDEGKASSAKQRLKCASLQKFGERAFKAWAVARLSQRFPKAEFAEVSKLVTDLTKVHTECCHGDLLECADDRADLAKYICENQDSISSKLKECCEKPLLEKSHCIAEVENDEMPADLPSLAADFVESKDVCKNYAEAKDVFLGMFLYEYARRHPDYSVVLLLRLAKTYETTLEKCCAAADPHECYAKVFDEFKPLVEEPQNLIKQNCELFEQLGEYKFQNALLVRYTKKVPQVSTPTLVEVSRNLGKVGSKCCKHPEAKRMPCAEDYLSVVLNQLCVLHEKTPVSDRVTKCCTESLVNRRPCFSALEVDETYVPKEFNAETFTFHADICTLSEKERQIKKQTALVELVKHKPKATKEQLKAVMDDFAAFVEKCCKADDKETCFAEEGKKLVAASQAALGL
Sequence of human type IIa topoisomerase (P11388 whole entry): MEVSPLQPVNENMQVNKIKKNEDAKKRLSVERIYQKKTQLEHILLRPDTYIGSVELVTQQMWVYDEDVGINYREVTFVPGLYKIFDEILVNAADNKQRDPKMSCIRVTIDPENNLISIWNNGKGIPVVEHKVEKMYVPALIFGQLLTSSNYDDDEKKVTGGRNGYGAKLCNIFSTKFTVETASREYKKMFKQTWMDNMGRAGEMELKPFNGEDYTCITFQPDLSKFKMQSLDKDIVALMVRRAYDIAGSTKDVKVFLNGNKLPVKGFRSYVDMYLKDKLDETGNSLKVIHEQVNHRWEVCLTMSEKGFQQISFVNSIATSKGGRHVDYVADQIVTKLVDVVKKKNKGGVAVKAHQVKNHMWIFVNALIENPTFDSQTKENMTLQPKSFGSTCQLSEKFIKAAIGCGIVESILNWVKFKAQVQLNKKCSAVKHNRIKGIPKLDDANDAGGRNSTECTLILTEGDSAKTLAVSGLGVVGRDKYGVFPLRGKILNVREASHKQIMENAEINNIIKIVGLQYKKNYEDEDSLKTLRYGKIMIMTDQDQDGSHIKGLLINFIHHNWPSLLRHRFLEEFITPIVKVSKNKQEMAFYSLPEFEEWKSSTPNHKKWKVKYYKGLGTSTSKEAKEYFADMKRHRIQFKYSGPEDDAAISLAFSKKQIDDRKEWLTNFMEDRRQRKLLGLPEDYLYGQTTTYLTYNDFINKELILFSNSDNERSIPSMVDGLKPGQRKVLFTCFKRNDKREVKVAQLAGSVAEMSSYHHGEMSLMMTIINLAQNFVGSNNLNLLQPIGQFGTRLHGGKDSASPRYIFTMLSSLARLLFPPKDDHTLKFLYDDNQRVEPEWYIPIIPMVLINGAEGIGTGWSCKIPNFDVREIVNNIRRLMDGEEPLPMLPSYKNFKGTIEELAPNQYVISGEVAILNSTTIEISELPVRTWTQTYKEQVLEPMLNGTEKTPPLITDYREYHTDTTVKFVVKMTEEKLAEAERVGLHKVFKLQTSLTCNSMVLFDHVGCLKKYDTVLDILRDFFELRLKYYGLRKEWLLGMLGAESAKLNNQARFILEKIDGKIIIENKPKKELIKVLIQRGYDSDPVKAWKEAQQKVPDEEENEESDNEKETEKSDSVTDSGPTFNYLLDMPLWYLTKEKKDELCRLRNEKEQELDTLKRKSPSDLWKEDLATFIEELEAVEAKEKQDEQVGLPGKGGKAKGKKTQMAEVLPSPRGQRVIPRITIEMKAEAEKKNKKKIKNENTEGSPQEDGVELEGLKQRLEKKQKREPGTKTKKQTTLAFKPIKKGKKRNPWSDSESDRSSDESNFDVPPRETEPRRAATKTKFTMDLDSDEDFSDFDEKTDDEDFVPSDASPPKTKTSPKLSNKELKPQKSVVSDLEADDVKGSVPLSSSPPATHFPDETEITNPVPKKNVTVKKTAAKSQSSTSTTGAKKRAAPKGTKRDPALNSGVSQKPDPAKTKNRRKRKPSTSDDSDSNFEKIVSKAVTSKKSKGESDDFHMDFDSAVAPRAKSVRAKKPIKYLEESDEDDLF

C#CCN1C(=O)c2cccc3c(-c4ccc5c(c4)c(-c4nc6ccccc6s4)cn5CC=C)ccc(c23)C1=O [Compound 13, 6-(1-Allyl-3-(benzo[d]thiazol-2-yl)-1H-indol-5-yl)-2-(prop-2-yn-1-yl)-1H-benzo[de]isoquinoline-1,3(2H)-dione]
IC50 [1]: 0.31 ± 0.01 µM | inhibition of topoisomerase II relaxation ([2]; 1 μM): partially inhibitor | inhibition of topoisomerase II relaxation ([2]; 5, 10 and 50 μM): significant and active inhibitors | enhancement in absorbance of HSA at 280 nm [3]: 51% | Kd [3]: 5320 nM | blue shift of synchronous fluorescence of HSA [4]: about 4 nm | E (efficiency of energy transfer) [5]: 0.93 | R0 (critical distance, 50% efficiency of energy transfer) [5]: 0.591 nm | J (overlap integral of donor emission with acceptor absorption) [5]: 1.039 × 10^−18 cm^3 L mol^−1 | r (distance among donor and acceptor) [5]: 0.377 nm

C=CCn1cc(-c2nc3ccccc3s2)c2cc(-c3ccc4c5c(cccc35)C(=O)N(CCO)C4=O)ccc21 [Compound 12, 6-(1-Allyl-3-(benzo[d]thiazol-2-yl)-1H-indol-5-yl)-2-(2-hydroxyethyl)-1H-benzo[de]isoquinoline-1,3(2H)-dione]
IC50 [1]: 0.14 ± 0.01 µM | inhibition of topoisomerase II relaxation ([2]; 1 μM): partially inhibitor | inhibition of topoisomerase II relaxation ([2]; 5, 10 and 50 μM): significant and active inhibitors | enhancement in absorbance of HSA at 280 nm [3]: 57% | Kd [3]: 5710 nM | blue shift of synchronous fluorescence of HSA [4]: about 4 nm | E (efficiency of energy transfer) [5]: 0.92 | R0 (critical distance, 50% efficiency of energy transfer) [5]: 0.592 nm | J (overlap integral of donor emission with acceptor absorption) [5]: 1.04 × 10^−18 cm^3 L mol^−1 | r (distance among donor and acceptor) [5]: 0.393 nm
